In one series the test system is AMPK. As to the kind of experiment: Western blot of phosphorylated AMPK (p-AMPK) in cerebral cortex at the infarct side of tMCAO rats. Format: in vivo, rat. The note with it: Compound C 20 mg/kg i.p. 30 min before I3. The procedure: (§1) The experimental method was manipulated as described in 2. At 30 min before the administration of I3, rats were intraperitoneally injected with 20 mg/kg of AMPK inhibitor Compound C, and the volume of the ipsilateral hemisphere infarct and the neurobehavioral score were determined at 48 h post-ischemia. Western blot analysis was performed on ischemic brain tissue to determine the content of phosphorylated AMPK (p-AMPK) in the cerebral cortex at the infarct side.

Series [1] deals with rats with tMCAO. As to the kind of experiment: Neurobehavioral function score in tMCAO rats. Format: in vivo, rat. The settings on record: tMCAO rats, comparison groups, administrated at 4 h post-ischemia and again at 24 h; 1 mg/kg (edaravone 3 mg/kg); scored 48 h. How it is done:
(§2) Experimental method: 75 SD male rats weighing 300±20 g were raised under the condition of 25° C. and relative humidity of 60% to 75% for 1 week for experiment. Rats were randomized into 5 groups: sham group, vehicle group, drug administration group at 24 h after ischemia, drug administration group at 6 h after ischemia, drug administration group at 4 h after ischemia, respectively, with 15 animals in each group.
(§3) Establishment of transient middle cerebral artery occlusion (tMCAO) rat model: The rats were anesthetized by intraperitoneal injection of chloral hydrate, and lying on an operating table with limbs fixed with string. […] ECA was ligated and cut off, ICA was clamped at the distal end with an arterial clip, and then a small opening was cut at the intersection of ECA and ICA near the ECA. A nylon thread with paraffin coated on one end was inserted from the small cut opening into the internal carotid artery at the intersection of the internal and external carotid arteries and further into the anterior cerebral artery at the proximal end, to block the blood supply to the middle cerebral artery on this side. At 120 minutes after ischemia, the nylon thread was withdrawn at the incision of the external carotid artery to achieve the reperfusion of the middle cerebral artery. The room temperature during surgery was controlled at 25 to 27° C.
(§4) Administration method: administrating after surgery with a concentration of 1 mg/kg. Drug administration group at 4 h after ischemia was administrated at 4 h after ischemia, and once again after 24 h. Drug administration group at 6 h after ischemia was administrated at 6 h after ischemia, and once again after 24 h. Drug administration group at 24 h after ischemia was administrated once at 24 h after ischemia.
(§5) After the time window for administration of 13 was determined, administration at 4 hour post-ischemia was selected as the subsequent testing time point. 95 SD male rats were randomized into 7 groups: sham group, vehicle group, NBP group, Telm group, NBP+Telm group, 13 group and edaravone group, respectively. The surgical procedure was as described above, NBP (1 mg/kg), Telm (1 mg/kg), NBP (1 mg/kg)+Telm (1 mg/kg), 13 (1 mg/kg) and edaravone (3 mg/kg) were administrated at 4 hour post-ischemia, and once again at 24 h, respectively. The infarct volume and neurobehavioral score were determined at 48 h post-ischemia.
The neurobehavioral function score of tMCAO rats were scored at 48 h after ischemia. Criteria for scoring is as follows: 0 point, no symptoms of nerve damage; 1 point, inability of fully extending forepaw at the healthy side; 2 points, circling to the healthy side; 3 points, tilting toward the healthy side; 4 points, inability of spontaneous walking and losing consciousness.
as §1
(§6) In FIG. 2, tMCAO models are established in male rats of 260 to 280 g (thread embolism is pulled out from the rats after 2 hour ischemia, resulting in reperfusion), 13 compound (1 mg/kg) is intravenously injected at 4 h post-ischemia, and intravenously injected again at 24 h post-ischemia. […]

Series [2] deals with rats with permanent middle cerebral artery occlusion. Briefly: Rotarod performance test in pMCAO rats. The note with it: in s (unit assumed). Format: in vivo, rat. How it is done:
(§7) Experimental method: Surgical method was described as the operation method for the above tMCAO. The thread embolism remained in the brain of rats without pulling out, and rotarod performance was tested every day. Brains were taken out at 72 h after ischemia for the determination of infarct volume and neurobehavioral score. The process of the rotarod performance test was as follows: rats were placed on a rotating rod of which the speed was accelerated from 4 rpm up to the maximum speed of 40 rpm within 5 minutes. Rats were trained for 3 to 7 days before model establishment, the rotarod performance was tested at 1, 2 and 3 days after pMCAO, respectively, and the falling time of rats were recorded.
(§8) In FIG. 3, pMCAO model is established on male rats of 260 to 280 g (thread embolism is not pulled out, resulting in permanent ischemia), the administration method is the same as that in FIG. 2, and the infract volume, neurobehavioral scores and rotarod test were determined at 72 h after ischemia, as described above.

Series [3] concerns rats with tMCAO. As to the kind of experiment: Infarct volume (TTC staining) in rats with transient middle cerebral artery occlusion (tMCAO). The class given is in vivo, rat. The settings on record: administrated at 4 h post-ischemia and again at 24 h, 1 mg/kg (edaravone 3 mg/kg), determined 48 h post-ischemia. The procedure:
as §2, §3, §4, §5
At 48 h post-ischemia, the rats were anesthetized with pentobarbital sodium, decapitated to get brain quickly, olfactory bulb, cerebellum and lower brain stem were removed, and coronal was cut into 6 slices. Then the brain slices were placed in the solution containing 4% TTC and 1 mol/L of K2HPO4, incubated at 37° C. for 30 min in the dark, during which the brain slices were flipped every 7 to 8 min. […] Images were taken after staining, and the infarct volume was calculated using an image analysis software. The percentage of infarct volume is calculated by the following formula: infarct area/total brain cross-sectional area×100%.
as §1, §6

Series [4] has as its system rats with permanent middle cerebral artery occlusion. Briefly: Neurobehavioral score in pMCAO rats. The note with it: 72 h after ischemia. The class given is in vivo, rat. The procedure:
as §7, §8

For series [5] the test system is unchanged. As to the kind of experiment: Infarct volume in rats with permanent middle cerebral artery occlusion (pMCAO). The class given is in vivo, rat. The note with it: 72 h after ischemia. The procedure: as §7, §8
The subject of another series is Nrf2. Briefly: Neh2-Luciferase reporter assay for Nrf2 activation in BV2 cells. The class given is cell-based. The note with it: for activity of intracellular Nrf2 (luciferase): 10 μM, 24 h incubation, BV2 cells. How it is done:
BV2 cells were transfected with Neh2-Luciferase reporter gene plasmid for 6 h, replaced a normal serum-containing medium and cultured for 24 h, then incubated with drug for 24 h, and treated with Reporter Lysis Buffer for 20 min. The Reporter Lysis Buffer was added to a 96-well plate, and the activity of luciferase was measured.
In FIGS. 1A and 1B, mouse primary microglia are pre-incubated with 1 μM or 5 μM of test compounds for 3 hours, then stimulated with LPS for 5 hours, and the protein content of pro-inflammatory factor TNF-α is determined by ELISA method. In FIG. 1C, the activations of the compounds on Nrf2 are tested by Luciferase Reporter Assay.

As to `c1cc(-c2cnn3cc(-c4ccc(OCCN5CCCCC5)cc4)cnc23)ccn1` [Compound C, reference compound], in the series with AMPK, the “AMPK activity (p-AMPK content in cerebral cortex at the infarct side)” value is reported as “inhibit the increase of AMPK activity induced by I3”.

For the compound `CC1=NN(c2ccccc2)C(=O)C1` [Edaravone, reference compound], the Neurobehavioral score in the series with rats with tMCAO [1] is given as 1.556; in series [4], 1.7. In addition, the Falling time in series [2] (Before modeling (baseline)) was 292.17; in series [2] (Day 1 after pMCAO) it was 56.33; in series [2] (Day 2 after pMCAO) it was 64.00; in series [2] (Day 3 after pMCAO) it was 74.00. Also, the “Infarction rate (%)” value in the series with rats with tMCAO [3] is recorded as 6.183%; in series [5] it was 16.7%.

On to `CCCCC(OC(C)=O)c1ccccc1C(=O)OCCCCOC(=O)c1ccccc1-c1ccc(Cn2c(CCC)nc3c(C)cc(-c4nc5ccccc5n4C)cc32)cc1` (centres unmarked) [I2, 4-O-{2-[(1-acetoxyl)n-pentyl]benzoyl}butanediol telmisartan ester], for which the melting point is 83 °C.

As to `CCCCC(OC(C)=O)c1ccccc1C(=O)OCCCCCOC(=O)c1ccccc1-c1ccc(Cn2c(CCC)nc3c(C)cc(-c4nc5ccccc5n4C)cc32)cc1` (centres unmarked) [I4, 5-O-{2-[(1-acetoxyl)n-pentyl]benzoyl}pentanediol telmisartan ester], the melting point was in the range of 78 to 79 °C.

Compound `CCCCC(OC(C)=O)c1ccccc1C(=O)OCCCCCCOC(=O)c1ccccc1-c1ccc(Cn2c(CCC)nc3c(C)cc(-c4nc5ccccc5n4C)cc32)cc1` (centres unmarked) [I5, 6-O-{2-[(1-acetoxyl)n-pentyl]benzoyl}hexanediol telmisartan ester] gave a melting point of 82 to 83 °C.

`CCCCC(OC(C)=O)c1ccccc1C(=O)OCCCCCCCCOC(=O)c1ccccc1-c1ccc(Cn2c(CCC)nc3c(C)cc(-c4nc5ccccc5n4C)cc32)cc1` (centres unmarked) [I6, 8-O-{2-[(1-acetoxyl)n-pentyl]benzoyl}octanediol telmisartan ester] returned a melting point of 83 to 84 °C.

Compound `CCCCC(OC(C)=O)c1ccccc1C(=O)NCCCCCCNC(=O)c1ccccc1-c1ccc(Cn2c(CCC)nc3c(C)cc(-c4nc5ccccc5n4C)cc32)cc1` (centres unmarked) [I7, 6-N-{2-[(1-acetoxyl)n-pentyl]benzoyl}hexanediamine telmisartan amide] came in with a melting point of 96 to 98 °C. The “activity of intracellular Nrf2 (luciferase)” value in the series on Nrf2 is on record as “significantly activate the activity of intracellular Nrf2”.

Take `CCCCC(OC(C)=O)c1ccccc1C(=O)NCCCCNC(=O)c1ccccc1-c1ccc(Cn2c(CCC)nc3c(C)cc(-c4nc5ccccc5n4C)cc32)cc1` (centres unmarked) [I8, 4-N-{2-[(1-acetoxyl)n-pentyl]benzoyl}butanediamine telmisartan amide]: the melting point lay within 97 to 99 °C. Also, the “activity of intracellular Nrf2 (luciferase)” value in the series on Nrf2 is listed as “significantly activate the activity of intracellular Nrf2”.

The compound `CCCCc1nc(C)c(C(=O)NCCCCCCCCNC(=O)c2ccccc2C(CCCC)OC(C)=O)n1Cc1ccc(-c2ccccc2-c2nnn[nH]2)cc1` (centres unmarked) [I17] displayed a melting point of 197 to 199 °C.

The compound `CCCCC1OC(=O)c2ccccc21` (centres unmarked) [NBP, Butylphthalide] showed a Neurobehavioral score with rats with tMCAO [1] of 2.7. The “Infarction rate (%)” value with rats with tMCAO [3] is on record as 20.99%.

`Cc1c(-c2cnccn2)ssc1=S` [Oltipraz, reference compound]: the “activation of Nrf2” value in the series with Nrf2 (concentration not given) is reported as “significantly promote the activation of Nrf2”.

`CCCc1nc2c(C)cc(-c3nc4ccccc4n3C)cc2n1Cc1ccc(-c2ccccc2C(=O)O)cc1` [Telm, Telmisartan] showed a Neurobehavioral score in the series with rats with tMCAO [1] of 1. Moreover, the “Infarction rate (%)” value in the series with rats with tMCAO [3] was 11.57%.

Values taken from patent US11028073B2, “Butylphthalide-telmisartan hybrids, preparation method and application thereof” (GUANGDONG LONGFU MEDICINE CO., LTD., priority 2017, dated 2021).
